Measurements reported in patent publication US9770421B2, “Uses for idebenone and related benzoquinones in metabolic disorders and other PPAR α/γ related diseases and conditions” (INDANIO BIOSCIENCE INC., priority 2013, dated 2017).
pEC50: −log10 of the molar value. Entries after “also recorded” stand apart in the source; their conditions may differ. Values belong to the compound of their own block, whether it stands above or below them.

What was measured:
hPPARγ = biological target: T1, hPPARγ (Homo sapiens, UniProt P37231); test: PPARγ ligand trap (LT) zebrafish GFP reporter screen/assay; format: in vivo; design: pLT PPARα (aa 178-468) and pLT PPAR γ (aa 188-477) lines; expressed in transfected cells; host or cells: transgenic zebrafish embryos (heat-induced ligand-trap line); settings: transgenic embryos, 48 hpf images
T1 sequence (P37231 188-477 isoform P37231-2): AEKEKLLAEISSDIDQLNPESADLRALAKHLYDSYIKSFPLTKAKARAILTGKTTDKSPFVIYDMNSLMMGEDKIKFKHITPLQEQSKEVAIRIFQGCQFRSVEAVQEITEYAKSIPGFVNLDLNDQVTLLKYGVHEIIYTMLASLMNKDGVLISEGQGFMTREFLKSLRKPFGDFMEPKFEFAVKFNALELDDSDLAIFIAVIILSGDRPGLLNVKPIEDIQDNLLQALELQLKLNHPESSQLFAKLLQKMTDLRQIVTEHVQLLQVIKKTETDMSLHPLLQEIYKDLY
Protocol: Digested DNA was adjusted with 0.1% phenol red. 4.6 nl of DNA solution was injected into the blastomeres of early one-cell stage embryos.
(§1) F0 fish were crossed with WT fish to identify germ-line transformed animals, as determined by agonist treatments and GFP expression. F1 progeny showing strong and consistent GFP responses were selected for F2 homozygote production. To avoid reporter GFP silencing of stable transgenic LT lines, homozygous fish showing strong and consistent GFP responses were selected for continued propagation of next generations.
PPARγ ligand trap zebrafish screens were performed under optimized conditions in 96-well format using the ImageXpress Velos Laser Scanning Cytometer. 1 or 2 dpf embryos were heat induced (28→37° C.) for 30 minutes, de-chorionated and then arrayed in 96-well plates (5 per well). Embryo water (0.075 g/L NaHCO3, 0.018 g/L Sea salt, 0.0084 g/L CaSO42H2O) was removed and 200 μl of fresh embryo water/well including dissolved small molecules or solvent was added.
Also included was the CoQ10 analog idebenone.

hPPARδ/β = biological target: T2, hPPARδ/β (Homo sapiens, UniProt Q03181); test: HEK293 cell culture luciferase reporter assay, hPPARδ/β; settings: read-out: EC50 hPPARδ/β; HEK293, GAL4-hPPARδ/β LBD, luciferase
T2 sequence (Q03181 143-441): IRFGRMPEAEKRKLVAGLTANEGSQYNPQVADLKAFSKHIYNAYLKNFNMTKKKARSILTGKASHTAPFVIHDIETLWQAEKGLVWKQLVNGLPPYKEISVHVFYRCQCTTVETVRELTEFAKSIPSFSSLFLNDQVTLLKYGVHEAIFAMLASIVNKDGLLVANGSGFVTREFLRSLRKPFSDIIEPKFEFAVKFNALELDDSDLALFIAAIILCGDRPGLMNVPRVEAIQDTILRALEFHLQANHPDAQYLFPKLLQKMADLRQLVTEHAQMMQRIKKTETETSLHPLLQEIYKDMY

[1] = biological target: T3, human PPARγ LBD (residues 206-477) (Homo sapiens, UniProt P37231); test: Stargazer thermostabilization assay; format: binding; settings: 0.2 mg/ml PPARγ LBD, heated to 80° C.
T3 construct: human PPARγ LBD (residues 206-477), expressed in pRSET; His tag (implied by Ni-NTA purification and the pRSET vector); made in house; host or cells: E. coli BL21 codon plus (pRSET)
T3 sequence (P37231 206-477 isoform P37231-2): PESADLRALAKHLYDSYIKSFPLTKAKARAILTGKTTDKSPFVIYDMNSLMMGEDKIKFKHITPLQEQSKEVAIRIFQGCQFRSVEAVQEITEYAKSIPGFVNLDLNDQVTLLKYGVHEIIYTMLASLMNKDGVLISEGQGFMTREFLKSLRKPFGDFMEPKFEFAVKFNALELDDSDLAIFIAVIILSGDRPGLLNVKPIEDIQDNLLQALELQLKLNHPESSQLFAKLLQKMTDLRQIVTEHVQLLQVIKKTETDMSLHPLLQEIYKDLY

PPARα = biological target: T4, PPARα (Homo sapiens, UniProt Q07869); test: PPARα ligand trap zebrafish GFP reporter assay; format: in vivo; design: pLT PPARα (aa 178-468) and pLT PPAR γ (aa 188-477) lines; expressed in transfected cells; host or cells: transgenic zebrafish embryos (ligand-trap line); settings: transgenic embryos, 48 hpf
T4 sequence (Q07869 178-468): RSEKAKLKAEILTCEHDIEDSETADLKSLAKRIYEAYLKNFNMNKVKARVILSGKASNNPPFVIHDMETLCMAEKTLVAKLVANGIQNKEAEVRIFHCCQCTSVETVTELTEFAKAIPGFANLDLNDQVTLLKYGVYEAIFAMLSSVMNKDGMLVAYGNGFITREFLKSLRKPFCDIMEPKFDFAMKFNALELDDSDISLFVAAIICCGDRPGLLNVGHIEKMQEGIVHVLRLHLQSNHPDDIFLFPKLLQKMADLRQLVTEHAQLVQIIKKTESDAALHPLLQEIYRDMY
Protocol: Zebrafish were maintained at 28.5° C. on a 14/10 hour light/dark cycle and staged according to hours (h) or days (d) postfertilization. To generate pLT PPARα (aa 178-468) and pLT PPAR γ (aa 188-477) lines, plasmids were pre-digested with I-SceI (0.8 μg DNA, 1 μl I-SceI (New England Biolabs) 2 μl 10×I-SceI buffer, 1 μl BSA) for 20 min at 37° C. Digested DNA was adjusted with 0.1% phenol red. 4.6 nl of DNA solution was injected into the blastomeres of early one-cell stage embryos.
as §1
PPARγ ligand trap zebrafish screens were performed under optimized conditions in 96-well format using the ImageXpress Velos Laser Scanning Cytometer. 1 or 2 dpf embryos were heat induced (28→37° C.) for 30 minutes, de-chorionated and then arrayed in 96-well plates (5 per well). […] Embryos were incubated at 28° C. for 14 h, anesthetized with Tricaine (Sigma, Cat. # A-5040) and then analyzed for GFP fluorescence using the ImageXpress Velos Laser Scanning Cytometer.

PPARδ/β = biological target: T5, PPARδ/β (Homo sapiens, UniProt Q03181); test: PPARδ/β ligand trap transgenic zebrafish line; settings: in vivo
T5 construct: expressed in transfected cells; host or cells: transgenic zebrafish embryos (ligand-trap line)
T5 sequence (Q03181 211-439 limits assumed): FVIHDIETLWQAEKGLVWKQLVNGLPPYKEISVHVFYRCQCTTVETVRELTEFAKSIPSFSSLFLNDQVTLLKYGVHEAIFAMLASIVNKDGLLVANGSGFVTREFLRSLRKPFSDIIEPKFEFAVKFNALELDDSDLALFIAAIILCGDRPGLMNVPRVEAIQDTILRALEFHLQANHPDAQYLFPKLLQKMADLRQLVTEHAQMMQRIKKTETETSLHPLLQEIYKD
Protocol: To test for specificity, idebenone and CoQ10 were also tested on PPARα, and PPARδ/β receptors in vivo and in vitro. […] The same relative responses were obtained with HEK 293 cells grown in culture and transfected with PPAR expression vectors and luciferase reporters (FIG. 5).

[2] = system: GFP-expressing leukocytes recruited in response to CuSO4; test: Zebrafish inflammation assay (CuSO4); format: in vivo; settings: 10 μM CuSO4, 55 hpf embryos
Protocol: Assay was performed as described in [47]. Fifteen dechorionated 55 hpf (hours post fertilization) embryos were transferred in each well of 6-well plates in 6 ml of embryo water. Idebenone was added at increasing concentrations (0.25, 0.75, 1.5, 3 and 5 μM). Embryos were incubated in the dark for 1 hr at 28 C, followed by a second 40 min incubation with copper sulfate (CuSO4) at a final concentration of 10 μM at 28 C in the dark. Embryos were then transferred to Eppendorf tubes and fixed in 4% paraformaldehyde in 1×PBS overnight at 4 C in the dark. Numbers of GFP+ cells were counted along the lateral line/neuromast clusters.
Previous studies have shown that PPAR agonists have anti-inflammatory properties, and can be used to treat a variety of inflammatory responses. To test if this is also true for idebenone, we used a zebrafish model of inflammation. Exposure of fish larvae to copper sulfate causes non-invasive damage to neuromast cells, which form external clusters along the lateral midline. This inflammation can be visualized via the recruitment of GFP-expressing leukocytes. As expected, this recruitment of GFP positive cells could be alleviated by addition of the known anti-inflammatory agent ibuprofen (FIG. 11).

C57Bl/6 db/db mice = test: db/db mouse study (NAFLD features); format: in vivo; settings: 10 mpk in food, 3 weeks, versus vehicle
Protocol: Db/db study: Forty male C57Bl/6 db/db mice (called B6.BKS(D)-Lepr db/J) were ordered from Jackson Laboratories (#000697) at 7 weeks of age. Mice were housed individually with free access to food (2016 Teklad Global 16% Protein Rodent Diet) and water on a 14 hour light/dark cycle (6 a.m. to 8 p.m. light). […] Food was exchanged on a daily bases. Harlan corn cob bedding was provided and was changed every week or as needed. Following a 1 week acclimation, 32 mice were chosen based on desired body weight range. Remaining mice were euthanized. Mice were randomized by body weight into four treatment groups (n=8) by body weight. Dosing occurred for 21 days. Mice were euthanized by CO2 euthanasia and livers were fixed in neutral buffered formalin (NBF) for 24 h, followed by a one day fixation in 30% Sucrose and 10% Sucrose. Oil O Red staining was performed through the Pathology Research Program at the University Health Network in Toronto [46]. [table] 100 mg of db/db livers were homogenized in RIPA buffer and protein concentration was quantified using a BCA protein assay kit (Cell signalling #7780) followed by measurement of ‘Thiobarbituric Acid Reactive Substances’ (TBARS) using a TBARS assay kit (Cayman Chemicals #10009055). Total RNA was extracted from 100 mg of db/db livers using RNA STAT-60 (Tel-Test, Inc.), treated with DNase I (RNase-free, Roche), and reverse transcribed into cDNA with random hexamers using the High Capacity Reverse transcription system (Applied Biosystems, ABI). Primers used are shown below and were validated as previously described. Real-time QPCR reactions were performed on an ABI 7900 in 384-well plates containing 12.5 ng cDNA, 150 nM of each primer, and 5 μl 2×SYBR Green PCR Master Mix (ABI) in a 10 μl total volume. Relative mRNA levels were calculated using the comparative Ct method normalized to cyclophilin mRNA.

SMILES: O=C1C=CC(=O)C=C1 [1,4-benzoquinone]
- GFP reporter activation in LT-PPARγ embryos (hPPARγ): did not induce a detectable response
- GFP reporter activation in LT-PPARγ embryos (hPPARγ; listed as benzoquinone): no reporter activation

- pEC50 (hPPARδ/β): 7.89
SMILES: O=C(O)COc1ccc(SCC=C(c2ccc(Br)cc2)c2ccc(Br)cc2)cc1Cl [CAY10592]

- Shift of thermal denaturation transition temperature [1]: 8.5 °C
SMILES: COC1=C(OC)C(=O)C(C)=CC1=O [CoQ0, Coenzyme Q0]
- GFP reporter activation in LT-PPARγ embryos (hPPARγ): relatively weak activity; also recorded: weak PPARγ activation

SMILES: COC1=C(OC)C(=O)C(CC=C(C)C)=C(C)C1=O [CoQ1, coenzyme Q1]
- GFP reporter activation in LT-PPARγ embryos (hPPARγ): relatively weak activity; also recorded: weak PPARγ activation

- GFP reporter activation in LT-PPARγ embryos (hPPARγ): activity similar to idebenone and CoQ10
SMILES: COC1=C(OC)C(=O)C(C/C=C(\C)CCC=C(C)C)=C(C)C1=O [CoQ2, coenzyme Q2]

- GFP reporter activation in LT-PPARγ embryos (hPPARγ): dual agonists for PPARα and PPARγ
- Response of PPARδ/β transgenic line (PPARδ/β): no response
SMILES: COC1=C(OC)C(=O)C(C/C=C(\C)CC/C=C(\C)CC/C=C(\C)CC/C=C(\C)CC/C=C(\C)CC/C=C(\C)CC/C=C(\C)CC/C=C(\C)CC/C=C(\C)CCC=C(C)C)=C(C)C1=O [CoQ10, coenzyme Q10]
- GFP response of PPARα LT line (PPARα): robust response; also recorded: dual agonists for PPARα and PPARγ

SMILES: CC(C)Cc1ccc(C(C)C(=O)O)cc1 (stereo not shown) [Ibuprofen]
- Recruitment of GFP positive leukocytes (anti-inflammatory activity) [2]: alleviated

SMILES: COC1=C(OC)C(=O)C(CCCCCCCCCC[P+](c2ccccc2)(c2ccccc2)c2ccccc2)=C(C)C1=O [MitoQ, 10-[4,5-dimethoxy-2-methyl-3,6-dioxo-1,4-cycloheexadienl-yl]decyl triphenylphosphonium methanesulfonate]
- GFP reporter activation in LT-PPARγ embryos (hPPARγ): failed to activate; also recorded: no activation

SMILES: CN(CCOc1ccc(CC2SC(=O)NC2=O)cc1)c1ccccn1 (stereo not shown) [rosiglitazone]
- Gain in liver weight (C57Bl/6 db/db mice): 8.6%
